Measurements: ChEMBL document CHEMBL1135269, “Benzoindoloquinolines interact with DNA tetraplexes and inhibit telomerase” (Bioorg Med Chem Lett, 2002)

Key:
[1] = target: DNA polymerase I, thermostable (Thermus aquaticus, UniProt P19821); experiment: Tested for inhibitory activity against Taq DNA polymerase
[2] = target: Telomerase reverse transcriptase (Homo sapiens, UniProt O14746); experiment: Tested for inhibitory activity against Telomerase in telomerase repeat amplification protocol (TRAP) assay
Telomerase reverse transcriptase, sequence (O14746 whole entry): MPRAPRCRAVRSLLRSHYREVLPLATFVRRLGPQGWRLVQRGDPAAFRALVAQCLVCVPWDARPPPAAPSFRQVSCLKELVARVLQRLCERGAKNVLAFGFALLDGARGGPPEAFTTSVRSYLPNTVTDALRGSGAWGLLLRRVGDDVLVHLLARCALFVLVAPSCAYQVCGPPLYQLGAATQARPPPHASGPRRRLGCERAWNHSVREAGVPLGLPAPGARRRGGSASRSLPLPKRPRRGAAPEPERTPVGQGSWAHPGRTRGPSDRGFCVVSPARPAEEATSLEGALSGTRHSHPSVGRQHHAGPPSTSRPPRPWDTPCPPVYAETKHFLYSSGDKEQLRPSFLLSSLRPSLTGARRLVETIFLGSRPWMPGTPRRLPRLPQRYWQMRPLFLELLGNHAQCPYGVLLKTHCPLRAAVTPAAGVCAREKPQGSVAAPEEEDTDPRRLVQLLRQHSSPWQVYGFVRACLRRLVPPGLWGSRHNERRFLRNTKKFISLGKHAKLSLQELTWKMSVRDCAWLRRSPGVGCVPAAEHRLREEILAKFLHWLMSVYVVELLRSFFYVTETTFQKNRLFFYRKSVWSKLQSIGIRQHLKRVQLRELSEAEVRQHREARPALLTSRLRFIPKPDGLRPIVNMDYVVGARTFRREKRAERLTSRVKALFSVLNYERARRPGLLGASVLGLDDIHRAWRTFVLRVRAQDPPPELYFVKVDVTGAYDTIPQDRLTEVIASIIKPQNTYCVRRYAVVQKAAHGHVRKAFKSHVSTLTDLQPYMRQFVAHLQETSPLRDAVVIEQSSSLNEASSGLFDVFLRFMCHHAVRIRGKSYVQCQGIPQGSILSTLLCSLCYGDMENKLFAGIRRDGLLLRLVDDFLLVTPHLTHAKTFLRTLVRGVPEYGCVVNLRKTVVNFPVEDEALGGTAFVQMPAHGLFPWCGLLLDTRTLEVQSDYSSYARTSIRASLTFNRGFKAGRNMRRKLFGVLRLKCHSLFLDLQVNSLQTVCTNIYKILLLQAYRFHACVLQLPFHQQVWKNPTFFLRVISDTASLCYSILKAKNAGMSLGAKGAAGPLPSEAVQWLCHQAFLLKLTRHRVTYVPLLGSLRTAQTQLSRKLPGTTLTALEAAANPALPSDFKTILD

DNA polymerase I, thermostable, sequence (P19821 whole entry): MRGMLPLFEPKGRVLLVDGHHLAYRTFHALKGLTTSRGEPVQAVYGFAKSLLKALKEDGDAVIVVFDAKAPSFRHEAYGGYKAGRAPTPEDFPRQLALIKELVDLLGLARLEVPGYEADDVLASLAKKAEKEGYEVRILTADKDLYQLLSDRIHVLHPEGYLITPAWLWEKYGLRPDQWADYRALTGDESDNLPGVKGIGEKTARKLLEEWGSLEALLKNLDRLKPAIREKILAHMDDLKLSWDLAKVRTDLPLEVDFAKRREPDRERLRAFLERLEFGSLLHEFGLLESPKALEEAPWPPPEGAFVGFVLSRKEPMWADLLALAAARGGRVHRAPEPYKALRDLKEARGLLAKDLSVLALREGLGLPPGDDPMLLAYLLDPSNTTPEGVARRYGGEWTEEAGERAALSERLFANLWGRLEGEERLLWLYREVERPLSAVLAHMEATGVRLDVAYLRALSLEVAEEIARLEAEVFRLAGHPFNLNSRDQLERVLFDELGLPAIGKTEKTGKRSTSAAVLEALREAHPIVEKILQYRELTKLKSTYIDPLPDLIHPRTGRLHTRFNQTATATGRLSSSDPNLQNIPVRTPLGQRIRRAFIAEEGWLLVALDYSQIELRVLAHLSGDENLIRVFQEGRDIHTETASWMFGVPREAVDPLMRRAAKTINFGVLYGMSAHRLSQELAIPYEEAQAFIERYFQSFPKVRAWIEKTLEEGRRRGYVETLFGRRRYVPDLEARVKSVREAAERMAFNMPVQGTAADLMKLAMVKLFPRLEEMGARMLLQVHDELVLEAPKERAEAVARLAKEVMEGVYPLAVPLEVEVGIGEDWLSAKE

Row | IC50 [1] [nM] | IC50 [2] [nM] | SMILES
1 | > 10000 | 9800 | COc1ccc2ccc3c([nH]c4c5ccccc5nc(NCCN(C)C)c34)c2c1
2 | 5000 | 500 | CN(C)CCCNc1nc2ccccc2c2[nH]c3c4cc([N+](=O)[O-])ccc4ccc3c12
3 | 900 | 1000 | COc1ccc2c(ccc3c2[nH]c2c4ccccc4nc(NCCCN(C)C)c32)c1
4 | 2200 | 1100 | COc1ccc2ccc3c([nH]c4c5ccccc5nc(NCCCN(C)C)c34)c2c1
